Results taken from ChEMBL document CHEMBL1126224, “Synthesis and biological activity of 4-(diphenylmethyl)-alpha-[(4-quinolinyloxy)methyl]-1-piperazineethanol and related compounds” (J Med Chem, 1992).
Calls of active or inactive are those of the source. The rule behind the calls is not given here.

Legend:
[1] = species on record: Rattus norvegicus; assay: The compound was tested for its cardiovascular activity in rat heart model. producing a 25% increase (EC25) in LV dP/dtmax (measure of contractility); N = not active; format: functional, organism-based
[2] = species on record: Rattus norvegicus; assay: The compound was tested for its cardiovascular activity in rat heart model. producing a 25% increase (EC25) in CF(coronary flow).; format: functional
[3] = species on record: Rattus norvegicus; assay: The compound was tested for its cardiovascular activity in rat heart model. producing a 50% increase (EC50) in CF(coronary flow).; format: functional, organism-based
[4] = system: Canis familiaris; assay: Total peripheral resistance was tested in anesthetized dogs for a dose of 1.0 mg/kg; format: functional, Canis lupus familiaris
[5] = system: Canis familiaris; assay: Mean blood pressure was tested in anesthetized dogs. for a dose of 1.0 mg/kg; format: functional, Canis lupus familiaris
[6] = system: Canis familiaris; assay: The compound was tested for its cardiovascular activity expressed as heart rate in beat/min in anesthetized dogs for a dose of 0.1 mg/kg; format: functional, Canis lupus familiaris
[7] = system: Canis familiaris; assay: Mean blood pressure was tested in anesthetized dogs. for a dose of 0.1 mg/kg; format: functional, Canis lupus familiaris
[8] = system: Canis familiaris; assay: Total peripheral resistance was tested in anesthetized dogs for a dose of 0.3 mg/kg; format: functional, Canis lupus familiaris
[9] = system: Canis familiaris; assay: Mean blood pressure was tested in anesthetized dogs. for a dose of 0.3 mg/kg; format: functional, Canis lupus familiaris
[10] = species on record: Rattus norvegicus; assay: The compound was tested for its cardiovascular activity in rat heart model. producing a 50% increase (EC50) in LV dP/dtmax (measure of contractility).; format: functional, organism-based
[11] = system: Canis familiaris; assay: The compound was tested for its cardiovascular activity in anesthetized dogs producing a 25% increase (EC25) in LV dP/dtmax (measure of contractility) for a dose of 0.3 mg/kg; format: functional, Canis lupus familiaris, Heart
[12] = species on record: Cavia porcellus; assay: Coronary flow activity in Langendorff perfused guinea pig heart; format: functional
[13] = system: Canis familiaris; assay: The compound was tested for its cardiovascular activity expressed as heart rate in beat/min in anesthetized dogs for a dose of 0.3 mg/kg; format: functional, Canis lupus familiaris
[14] = system: Canis familiaris; assay: The compound was tested for its cardiovascular activity expressed as heart rate in beat/min in anesthetized dogs for a dose of 1.0 mg/kg; format: functional, Canis lupus familiaris
[15] = system: Canis familiaris; assay: Total peripheral resistance was tested in anesthetized dogs for a dose of 0.1 mg/kg; format: functional, Canis lupus familiaris
[16] = system: Canis familiaris; assay: The compound was tested for its cardiovascular activity in anesthetized dogs producing a 25% increase (EC25) in LV dP/dtmax (measure of contractility) for a dose of 0.1 mg/kg; format: functional, Canis lupus familiaris, Heart
[17] = species on record: Oryctolagus cuniculus; assay: Calcium channel blocking activity in rabbit aortic rings; format: functional; details: Aorta
[18] = system: Canis familiaris; assay: The compound was tested for its cardiovascular activity in anesthetized dogs producing a 25% increase (EC25) in LV dP/dtmax (measure of contractility) for a dose of 1.0 mg/kg; format: functional, Canis lupus familiaris, Heart
[19] = species on record: Rattus norvegicus; assay: The compound was tested for its cardiovascular activity in rat heart model. producing a 25% increase (EC25) in LV dP/dtmax (measure of contractility).; format: functional
[20] = species on record: Rattus norvegicus; assay: (§1) The compound was tested for its cardiovascular activity in rat heart model. producing a 25% increase (EC25) in CF(coronary flow); N = not active; format: functional, organism-based
[21] = species on record: Rattus norvegicus; assay: as §1; format: functional, organism-based; remark: listed apart in the source
[22] = species on record: Rattus norvegicus; assay: The compound was tested for its cardiovascular activity in rat heart model. producing a 25% increase (EC25) in LV dP/dtmax (measure of contractility); NA = not achieved; format: functional, organism-based
[23] = system: Canis familiaris; assay: Total peripheral resistance was tested in anesthetized dogs for a dose of 0.01 mg/kg; format: functional, Canis lupus familiaris
[24] = system: Canis familiaris; assay: The compound was tested for its cardiovascular activity expressed as heart rate in beat/min in anesthetized dogs for a dose of 0.01 mg/kg; format: functional, Canis lupus familiaris
[25] = system: Canis familiaris; assay: The compound was tested for its cardiovascular activity in anesthetized dogs producing a 25% increase (EC25) in LV dP/dtmax (measure of contractility) for a dose of 0.01 mg/kg; format: functional, Canis lupus familiaris, Heart
[26] = species on record: Rattus norvegicus; assay: The compound was tested for its cardiovascular activity in rat heart model. producing a 25% increase (EC50) in CF(coronary flow); NA = not achieved; format: functional, organism-based
[27] = system: Canis familiaris; assay: Mean blood pressure was tested in anesthetized dogs. for a dose of 0.01 mg/kg; format: functional, Canis lupus familiaris
[28] = species on record: Rattus norvegicus; assay: The compound was tested for its cardiovascular activity in rat heart model. producing a 50% increase (EC50) in LV dP/dtmax (measure of contractility); NA = not achieved; format: functional, organism-based

OC(COc1cccc2cnccc12)CN1CCN(c2ccccc2SCc2ccccc2)CC1 (configuration not stated)
EC25 [1]: inactive | EC25 [2]: 1000 nM

N#Cc1cc2c(OCC(O)CN3CCN(C(c4ccccc4)c4ccccc4)CC3)cccc2o1 (configuration not stated)
EC50 [3]: 3000 nM | Total peripheral resistance [4]: -21.7 mmHg·min/mL | Mean blood pressure [5]: -14.5 mmHg | Heart rate [6]: 0 beats min-1 | Mean blood pressure [7]: -0.66 mmHg | Total peripheral resistance [8]: -8.66 mmHg·min/mL | Mean blood pressure [9]: -7.3 mmHg | EC50 [10]: 420 nM | Contractility [11]: 9.3 mmHg s-1 | EC25 [12]: 2250 nM | Heart rate [13]: -1.66 beats min-1 | EC25 [2]: 100 nM | Heart rate [14]: -3.33 beats min-1 | Total peripheral resistance [15]: -0.66 mmHg·min/mL | Contractility [16]: 2 mmHg s-1 | EC25 [17]: > 100000 nM | Contractility [18]: 30.3 mmHg s-1 | EC25 [19]: 100 nM

Cc1cc(OCC(O)Cn2cnc3ccccc32)c2ccccc2n1 (configuration not stated)
EC50 [20]: Not Active | EC25 [1]: inactive

Cc1cc(OCC(O)CN2CCN(C(c3ccccc3)c3ccccc3)CC2)c2ccccc2n1.Cl.O (configuration not stated)
EC25 [2]: 800 nM

OC(COc1ccnc2ccccc12)CN1CCN(C(c2ccccc2)c2ccccc2)CC1 (configuration not stated)
Total peripheral resistance [4]: -17 mmHg·min/mL | Mean blood pressure [5]: 3 mmHg | Heart rate [6]: -2 beats min-1 | Mean blood pressure [7]: 3 mmHg | EC25 [21]: inactive | Total peripheral resistance [8]: 6.5 mmHg·min/mL | Mean blood pressure [9]: 4.5 mmHg | EC50 [10]: 320 nM | Contractility [11]: 40 mmHg s-1 | EC25 [12]: 900 nM | Heart rate [13]: -3.5 beats min-1 | Heart rate [14]: -2.6 beats min-1 | Total peripheral resistance [15]: 3 mmHg·min/mL | Contractility [16]: 12 mmHg s-1 | EC25 [17]: > 100000 nM | Contractility [18]: 115.5 mmHg s-1 | EC25 [19]: 140 nM

OC(COc1cccc2cnccc12)CN1CCN(C(c2ccccc2)c2ccccc2)CC1 (configuration not stated)
EC50 [3]: 1500 nM | EC25 [1]: inactive | EC25 [2]: 200 nM

OC(COc1cccc2ncccc12)CN1CCN(C(c2ccccc2)c2ccccc2)CC1 (configuration not stated)
EC50 [3]: 2000 nM | EC25 [22]: inactive | EC25 [2]: 800 nM

N#Cc1cc2c(OCC(O)CN3CCN(C(c4ccccc4)c4ccccc4)CC3)cccc2[nH]1 (configuration not stated)
Total peripheral resistance [4]: -24.5 mmHg·min/mL | Mean blood pressure [5]: -21 mmHg | Heart rate [6]: -0.66 beats min-1 | Mean blood pressure [7]: 2.3 mmHg | Total peripheral resistance [23]: -9.6 mmHg·min/mL | EC50 [10]: 35 nM | EC25 [12]: 280 nM | Heart rate [24]: 0.66 beats min-1 | Contractility [25]: 9 mmHg s-1 | EC25 [2]: 300 nM | Heart rate [14]: -1 beats min-1 | EC50 [26]: Not Active | Total peripheral resistance [15]: -17.3 mmHg·min/mL | Contractility [16]: 21.3 mmHg s-1 | Mean blood pressure [27]: 4.3 mmHg | EC25 [17]: > 100000 nM | Contractility [18]: 83.3 mmHg s-1 | EC25 [19]: 20 nM

Cl.OC(COc1ccc2ncccc2c1)CN1CCN(C(c2ccccc2)c2ccccc2)CC1 (configuration not stated)
EC25 [21]: inactive | EC50 [10]: 800 nM | EC25 [19]: 480 nM

OC(COc1cccc2[nH]ccc12)CN1CCN(C(c2ccccc2)c2ccccc2)CC1 (configuration not stated)
EC50 [3]: 2500 nM | EC25 [1]: inactive | EC25 [2]: 120 nM

Oc1nccc2c(OCC(O)CN3CCN(C(c4ccccc4)c4ccccc4)CC3)cccc12 (configuration not stated)
EC25 [2]: 150 nM

OC(COc1ccnc2cc(C(F)(F)F)ccc12)CN1CCN(C(c2ccccc2)c2ccccc2)CC1 (configuration not stated)
EC50 [3]: 400 nM | EC25 [1]: inactive | EC25 [2]: 200 nM

OC(COc1ccc2cccnc2c1)CN1CCN(C(c2ccccc2)c2ccccc2)CC1 (configuration not stated)
EC50 [3]: 1010 nM | EC25 [2]: 160 nM | EC50 [28]: Not Active | EC25 [19]: 700 nM

CCOC(=N)c1cc2c(OCC(O)CN3CCN(C(c4ccccc4)c4ccccc4)CC3)cccc2o1 (configuration not stated)
EC25 [1]: inactive | EC25 [2]: 1000 nM

Cc1cc(OCC(O)CN2CCc3ccccc3C2)c2ccccc2n1 (configuration not stated)
EC50 [20]: Not Active | EC25 [1]: inactive
